Assay results reported in patent US9884063B2, “Amido-substituted azole compounds” (Bayer Pharma Aktiengesellschaft, priority 2014, dated 2018).
Structures can show the parent of a compound that is named as a salt.

Experiments:
[1] = test system: wildtype Wnt signaling cascade; assay: HEK293 TOP Assay (Super TopFlash luciferase reporter, Wnt-3a stimulated); assay type: cell-based; settings: Homo sapiens
Method in brief: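 Compounds (50 μM down to 15 nM, 3.16-fold steps, in CAFTY buffer pH 7.4, 2 mM Ca2+, 0.01% BSA) tested in parallel on TOP and FOP HEK293 reporter lines to define selective wildtype Wnt inhibition. Pathway driven by recombinant human Wnt-3a applied at 2500–5 ng/ml in two-fold dilutions.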

[2] = test system: HEK293 FOP control reporter cell line; assay: HEK293 FOP Assay (FOP control vector luciferase reporter); assay type: cell-based; settings: Homo sapiens
Method in brief: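 Compound series 50 μM to 15 nM, 3.16-fold steps, were diluted in CAFTY buffer (pH 7.4, 2 mM Ca2+, 0.01% BSA) and tested alongside the TOP reporter line. Human Wnt-3a was added at 2500–5 ng/ml in two-fold steps. The control HEK293 line stably holds an FOP vector whose TCF elements are randomized and non-functional.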

TNKS1 = molecular target: T1, TNKS1 (Homo sapiens, UniProt O95271); assay: Modified TNKS1 Assay 3 (BPS kit #80573, biotin-NAD+, 96 well); assay type: biochemical; settings: human TNKS1, BPS kit #80573, 96 well
T1 sequence (O95271 1-1327): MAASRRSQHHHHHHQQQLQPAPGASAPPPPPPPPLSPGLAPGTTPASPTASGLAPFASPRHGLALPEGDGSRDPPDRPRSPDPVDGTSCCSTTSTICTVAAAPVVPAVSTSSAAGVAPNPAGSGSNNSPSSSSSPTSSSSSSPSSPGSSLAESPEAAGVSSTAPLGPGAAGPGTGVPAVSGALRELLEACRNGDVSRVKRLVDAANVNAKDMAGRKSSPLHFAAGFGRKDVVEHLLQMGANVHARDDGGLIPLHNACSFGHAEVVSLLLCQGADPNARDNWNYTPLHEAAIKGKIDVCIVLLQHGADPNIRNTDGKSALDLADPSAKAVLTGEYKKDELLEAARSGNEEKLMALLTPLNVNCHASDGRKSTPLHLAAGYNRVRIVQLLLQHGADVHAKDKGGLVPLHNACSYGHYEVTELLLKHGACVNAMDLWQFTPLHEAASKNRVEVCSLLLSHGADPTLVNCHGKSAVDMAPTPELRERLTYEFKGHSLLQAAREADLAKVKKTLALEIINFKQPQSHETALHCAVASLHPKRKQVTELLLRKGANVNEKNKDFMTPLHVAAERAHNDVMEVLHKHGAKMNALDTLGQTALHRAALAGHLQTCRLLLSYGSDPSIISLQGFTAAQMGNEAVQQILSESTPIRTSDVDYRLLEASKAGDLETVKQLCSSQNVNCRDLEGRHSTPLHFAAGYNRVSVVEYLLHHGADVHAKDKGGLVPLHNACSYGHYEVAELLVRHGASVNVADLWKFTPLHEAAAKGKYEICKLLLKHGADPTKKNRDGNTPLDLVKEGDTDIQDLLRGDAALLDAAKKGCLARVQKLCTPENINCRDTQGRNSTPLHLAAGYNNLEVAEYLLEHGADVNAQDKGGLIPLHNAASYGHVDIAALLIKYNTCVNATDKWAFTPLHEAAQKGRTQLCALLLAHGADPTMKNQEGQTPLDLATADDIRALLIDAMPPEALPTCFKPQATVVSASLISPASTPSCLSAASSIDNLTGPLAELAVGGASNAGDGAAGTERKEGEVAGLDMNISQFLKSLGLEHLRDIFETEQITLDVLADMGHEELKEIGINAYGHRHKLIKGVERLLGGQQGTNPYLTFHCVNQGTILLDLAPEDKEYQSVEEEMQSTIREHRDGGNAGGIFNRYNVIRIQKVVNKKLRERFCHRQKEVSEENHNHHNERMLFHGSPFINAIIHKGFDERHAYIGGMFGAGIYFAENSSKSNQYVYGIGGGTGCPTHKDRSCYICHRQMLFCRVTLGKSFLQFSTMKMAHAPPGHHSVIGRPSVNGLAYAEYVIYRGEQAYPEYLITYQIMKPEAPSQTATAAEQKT
Method in brief: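 Chemiluminescent assay of TNKS1-catalysed ribosylation of a protein substrate with biotin-labelled NAD+, detected via streptavidin-HRP; run per kit protocol. Inhibition lowers the signal, and IC50 is the compound concentration halving the normalised readout.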

[3] = HEK293, 16 h, HEK293 TOP reporter cell line, Wnt-3a at EC50, 16 hours incubation, compound dilution series 50 μM to 15 nM
[4] = HEK293, 16 h, HEK293 TOP reporter cells, Wnt3a at EC50, 16 hours, luciferase
[5] = HEK293 FOP control reporter cell line, 16 hours incubation, compound dilution series 50 μM to 15 nM
[6] = HEK293 FOP control reporter cells, 16 hours, luciferase, dilution series from 50 μM

SMILES | IC50 [1, 3] [nM] | IC50 [1, 4] [nM] | IC50 [2, 5] [nM] | IC50 [2, 6] [nM] | IC50 (TNKS1) [nM] | IC50 ([1]; HEK293 TOP reporter cell line, Wnt-3a at EC50, 16 hours incubation, compound dilution series 50 μM to 15 nM) [nM] | IC50 ([2]; HEK293, 16 h, HEK293 FOP control reporter cell line, 16 hours incubation, compound dilution series 50 μM to 15 nM) [nM]
COC(=O)c1nc[nH]c1C(=O)Nc1ccc(NC(=O)c2ccc(F)cc2Cl)cc1 [Example 13, Methyl 5-({4-[(2-chloro-4-fluorobenzoyl)amino]phenyl}carbamoyl)-1H-imidazole-4-carboxylate] | 130 | 130 | 25000 | 25000 | 60 |  | 
O=C(Nc1ccc(NC(=O)c2nc[nH]c2C(=O)NCCN2CCOCC2)cc1)c1ccc(F)cc1Cl [Example 227, N^4-{4-[(2-chloro-4-fluorobenzoyl)amino]phenyl}-N^5-[2-(morpholin-4-yl)ethyl]-1H-imidazole-4,5-dicarboxamide] | 120 |  | 23000 |  | 200 |  | 
O=C(Nc1ccc(NC(=O)c2nc[nH]c2C(=O)NCC2CCCN2)cc1)c1ccc(F)cc1Cl (stereo not drawn) [Example 284, N^4-{4-[(2-chloro-4-fluorobenzoyl)amino]phenyl}-N^5-(pyrrolidin-2-ylmethyl)-1H-imidazole-4,5-dicarboxamide hydrochloride salt] |  |  |  |  | 60 | 680 | 50000
O=C(Nc1ccc(NC(=O)c2[nH]cnc2C(=O)NCCN2CCCCC2)cc1F)c1ccc(F)cc1Cl [Example 74, N^5-{4-[(2-chloro-4-fluorobenzoyl)amino]-3-fluorophenyl}-N^4-[2-(piperidin-1-yl)ethyl]-1H-imidazole-4,5-dicarboxamide] | 70 |  | 14000 |  | 2 |  | 
O=C(Nc1ccc(NC(=O)c2ocnc2C(=O)NCCN2CC[C@@H](F)C2)cc1)c1ccc(F)cc1Cl [Example 222, N^5-{4-[(2-chloro-4-fluorobenzoyl)amino]phenyl}-N^4-{2-[(3R)-3-fluoropyrrolidin-1-yl]ethyl}-1,3-oxazole-4,5-dicarboxamide] | 670 |  | 23000 |  | 220 |  | 
CNC(=O)c1nc[nH]c1C(=O)Nc1ccc(NC(=O)c2ccccc2Br)cc1 [Example 37, N^5-{4-[(2-bromobenzoyl)amino]phenyl}-N^4-methyl-1H-imidazole-4,5-dicarboxamide] | 330 | 330 | 20000 | 20000 | 330 |  | 
CN(C)CCNC(=O)c1ncoc1C(=O)Nc1ccc(NC(=O)c2ccc(F)cc2Cl)cc1 [Example 31, N^5-{4-[(2-chloro-4-fluorobenzoyl)amino]phenyl}-N^4-[2-(dimethylamino)ethyl]-1,3-oxazole-4,5-dicarboxamide] | 1600 | 1600 |  | ≥ 50000 | 130 |  | 
O=C(Nc1ccc(NC(=O)c2nc[nH]c2C(=O)NCCN2CC[C@H](F)C2)cc1)c1ccc(F)cc1Cl [Example 232, N^4-{4-[(2-chloro-4-fluorobenzoyl)amino]phenyl}-N^5-{2-[(3S)-3-fluoropyrrolidin-1-yl]ethyl}-1H-imidazole-4,5-dicarboxamide] | 220 |  | 35000 |  | 290 |  | 
O=C(Nc1ccc(NC(=O)c2nc[nH]c2C(=O)NCCN2CCCC(F)(F)C2)cc1)c1ccc(F)cc1Cl [Example 225, N^4-{4-[(2-chloro-4-fluorobenzoyl)amino]phenyl}-N^5-[2-(3,3-difluoropiperidin-1-yl)ethyl]-1H-imidazole-4,5-dicarboxamide] | 800 |  | 44000 |  | 180 |  | 
O=C(Nc1ccc(NC(=O)c2nc[nH]c2C(=O)NC2CCOCC2)cc1)c1ccc(F)cc1Cl [Example 234, N^4-{4-[(2-chloro-4-fluorobenzoyl)amino]phenyl}-N^5-(tetrahydro-2H-pyran-4-yl)-1H-imidazole-4,5-dicarboxamide] | 460 |  | 16000 |  | 220 |  | 
CNC(=O)c1nc[nH]c1C(=O)Nc1ccc(NC(=O)c2cccc(C)c2Cl)cc1 [Example 346, N^5-{4-[(2-chloro-3-methylbenzoyl)amino]phenyl}-N^4-methyl-1H-imidazole-4,5-dicarboxamide] | 900 |  | 26000 |  | > 500 |  | 
CCN1CCC[C@H]1CNC(=O)c1nc[nH]c1C(=O)Nc1ccc(NC(=O)c2ccc(F)cc2Cl)cc1 [Example 404, N^5-{4-[(2-chloro-4-fluorobenzoyl)amino]phenyl}-N^4-{[(2S)-1-ethylpyrrolidin-2-yl]methyl}-1H-imidazole-4,5-dicarboxamide] | 90 |  | 29000 |  | 1 |  | 
O=C(Nc1ccc(NC(=O)c2[nH]cnc2C(=O)NCCN2CCCCC2)cc1F)c1ccccc1Cl [Example 82, N^5-{4-[(2-chlorobenzoyl)amino]-3-fluorophenyl}-N^4-[2-(piperidin-1-yl)ethyl]-1H-imidazole-4,5-dicarboxamide] | 90 |  | 44000 |  | 10 |  | 
O=C(Nc1ccc(NC(=O)c2ocnc2C(=O)NCCN2CC[C@H](F)C2)cc1)c1ccc(F)cc1Cl [Example 221, N^5-{4-[(2-chloro-4-fluorobenzoyl)amino]phenyl}-N^4-{2-[(3S)-3-fluoropyrrolidin-1-yl]ethyl}-1,3-oxazole-4,5-dicarboxamide] | 820 |  | 12000 |  | > 500 |  | 
O=C(Nc1ccc(NC(=O)c2[nH]cnc2C(=O)NC2CC2)cc1)c1ccc(F)cc1Cl [Example 45, N^5-{4-[(2-chloro-4-fluorobenzoyl)amino]phenyl}-N^4-cyclopropyl-1H-imidazole-4,5-dicarboxamide] | 190 |  | 40000 |  | 70 |  | 
CCN1CCCC1CNC(=O)c1nc[nH]c1C(=O)Nc1ccc(NC(=O)c2ccc(F)cc2Cl)cc1 (stereo not drawn) [Example 390, N^5-{4-[(2-chloro-4-fluorobenzoyl)amino]phenyl}-N^4-[(1-ethylpyrrolidin-2-yl)methyl]-1H-imidazole-4,5-dicarboxamide] | 250 |  | 18000 |  | 0.9 |  | 
CNC(=O)c1nc[nH]c1C(=O)Nc1ccc(NC(=O)c2c(C)cc(C)cc2C)cc1 [Example 35, N^5-{4-[(mesitylcarbonyl)amino]phenyl}-N^4-methyl-1H-imidazole-4,5-dicarboxamide] | 760 | 760 |  | ≥ 50000 | > 500 |  | 
O=C(Nc1ccc(NC(=O)c2nc[nH]c2C(=O)NCCN2CCC(F)(F)CC2)cc1)c1ccccc1Cl [Example 214, N^4-{4-[(2-chlorobenzoyl)amino]phenyl}-N^5-[2-(4,4-difluoropiperidin-1-yl)ethyl]-1H-imidazole-4,5-dicarboxamide] | 1250 |  | 22000 |  | 200 |  | 
COc1cc(NC(=O)c2[nH]cnc2C(=O)NCCN2CCCCC2)ccc1NC(=O)c1ccc(F)cc1Cl [Example 97, N^5-{4-[(2-chloro-4-fluorobenzoyl)amino]-3-methoxyphenyl}-N^4-[2-(piperidin-1-yl)ethyl]-1H-imidazole-4,5-dicarboxamide] | 80 |  | 29000 |  | 90 |  | 
